Earlier results as cited in patent publication US11065266B2, “Method of treating melanoma using an inhibitor of an atypical protein kinase C” (UNIVERSITY OF SOUTH FLORIDA, priority 2016, dated 2021).

Target: T1, PKC-ι (Homo sapiens, UniProt P41743)
T1 sequence (P41743 1-596): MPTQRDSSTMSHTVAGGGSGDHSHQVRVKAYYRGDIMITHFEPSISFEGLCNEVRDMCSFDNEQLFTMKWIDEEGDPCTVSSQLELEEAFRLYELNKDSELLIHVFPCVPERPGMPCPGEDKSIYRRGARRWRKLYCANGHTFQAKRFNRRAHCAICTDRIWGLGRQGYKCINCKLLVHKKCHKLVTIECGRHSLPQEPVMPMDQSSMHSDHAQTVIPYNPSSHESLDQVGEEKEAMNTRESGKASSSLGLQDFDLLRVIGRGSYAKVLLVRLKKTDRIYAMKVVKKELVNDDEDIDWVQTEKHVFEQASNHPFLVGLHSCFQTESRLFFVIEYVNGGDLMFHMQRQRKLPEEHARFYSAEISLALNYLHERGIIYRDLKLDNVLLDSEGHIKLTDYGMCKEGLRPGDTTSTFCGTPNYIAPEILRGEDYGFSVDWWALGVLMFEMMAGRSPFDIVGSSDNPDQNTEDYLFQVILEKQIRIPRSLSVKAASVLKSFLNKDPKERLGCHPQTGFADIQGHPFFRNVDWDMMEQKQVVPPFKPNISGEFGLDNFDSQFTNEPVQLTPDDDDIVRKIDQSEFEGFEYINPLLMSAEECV
Conditions: cited from earlier work

| Compound | binding to PKC-ι |
| --- | --- |
| O=C([O-])CC([S-])C(=O)[O-].[Au+].[Na+].[Na+] (centres unmarked) [Sodium aurothiomalate] | low micromolar range |
| OC[C@H]1O[C@H]([S-])[C@H](O)[C@@H](O)[C@@H]1O.[Au+] [aurothioglucose] | low micromolar range |
